# Measured values from patent US9072293B2, “Cyclopropenes and method for applying cyclopropenes to agricultural products or crops” (Erum Biotechnologies Inc., priority 2010, dated 2015).
# Where “and” joins values, the source holds several entries; their conditions need not be identical. Equal entries are not always repeated.
# Columns and labels:
# [1] = Relative chemical stability of cyclopropenes measured by 1H-NMR; type: physicochemical; conditions: for Stability (relative chemical stability, based on cyclopropenes having a chain length of 1): 1H-NMR, CDCl3, stored at −20° C. or room temperature, relative to chain length 1
# Text: A variety of analysis methods can be used to analyze the derivatives of Formula 6, since the absorbance of cyclopropenes containing an aryl group can be easily measured in the UV range. It can be confirmed that the chemical stability of the derivatives increases, when the length of chains to link an aryl ring to a cyclopropene ring is 2 or more. […] It is supposed that the stability of cyclopropenes increase due to the fact that π electrons of aryl groups affect π electrons of cyclopropenes.
# The following Table 1 summarizes the relative chemical stability of cyclopropenes having a chain length of 2, 3, 4 or 5, based on the chemical stability of cyclopropenes having a chain length of 1. In the case of cyclopropene having a chain length of 1, the structure thereof can be confirmed via ^1H-NMR within one hour following synthesis (degraded to a level of 50% or more within one hour at 30° C.). In the case of cyclopropene having a chain length of zero, synthesis thereof was attempted in accordance with the present invention, but was impossible by a conventional method. Meanwhile, in the case of cyclopropenes having a chain length of 2 or more, the structure thereof can be precisely confirmed by ^1H-NMR as well as ^13C-NMR. The stability of these cyclopropenes was measured by ^1H-NMR while NMR cells (CDCl3) were stored at −20° C. or room temperature. In particular, cyclopropenes having chains of 3 or more were so stable that their half-life reached 5 days or longer at −20° C. or lower. In ^1H-NMR analysis, the stability was evaluated by comparing integral values at 4 to 6.5 ppm (1H) and 0.8 to 0.9 ppm (2H), characteristic peaks of 1-alkylcyclopropenes, using a small amount of 1,1,3,3-tetramethylurea (2.80 ppm) as an internal standard. Furthermore, the stability was also qualitatively evaluated by comparing integral value of the peak newly generated adjacent to the peak of the olefin proton of cyclopropene ring, as a 1-alkylcyclopropene compound is decomposed.
# tomato [2] = experiment: Experimental Example 1: Efficacy test on tomato using emulsion (reddening grade); type: in vivo; parameters: key: an area in which the surface of tomato was colored in pink was 10% or less; an area in which the surface of tomato was completely colored in red was 10 to 40%; 2: an area in which the surface of tomato was completely colored in red was 40 to 70%; 3: an area in which the surface of tomato was completely colored in red was 70% or more and the bottom area remained green; 4: an area in which the surface of tomato was most colored in red and only a part of (0 to 10%) the bottom area remained green; 5: the surface of tomato did not entirely color in green; conditions: individual tomatoes n=4
# Description: In situ, a 1.0 mM 1-octylcyclopropene formulation was prepared using (trans)-1-octyl-1-(methanesulfonyloxy)-2-(trimethylsilyl)cyclopropane of Preparation Example 10 in the same manner as in Example 7. This solution was diluted to 1 to 100 times prior to use, as necessary. Experimental Example 1: Efficacy test on tomato using emulsion 1.0 mM formulations of five agents such as 1-(2-phenylethyl)cyclopropene, 1-(3-phenylpropyl)cyclopropene, 1-(4-phenylbutyl)cyclopropene, 1-(5-phenylpentyl)cyclopropene and 1-hexylcyclopropene were prepared in the same manner as in Example 1, and 1.0 mM and 100 μM solutions were prepared therefrom. Then, the effects of the solutions were compared with non-treated groups and control groups in which a surfactant or a stabilizing agent (sodium dodecylbenzenesulfonate or tristyrenylphenykethoxy)12ethanol) is dissolved.
# Tomatoes whose top end began to turn pink were screened, harvested and divided into 12 groups (n=4) in total, i.e., non-treated groups, control groups (surfactant) and agent groups with different concentrations such as 100 μM and 1.0 mM. Tomatoes were treated with the prepared agent formulation using a household sprayer such that the surface thereof was saturated. The tomatoes were stood at room temperature (25-30° C.) for 3 days and a reddening level thereof was evaluated based on grades of 0 to 5.
# (§1) At this time, the tops of tomatoes most early turned red, while the bottoms thereof most lately turned red. For this reason, in order to accurately evaluate the difference in reddening, the coloring evaluated was based on the area of red color, rather than the color of tomatoes. […] Accordingly, the grade level is proportional to the rate at which the tomatoes ripened.
# tomato [3] = experiment: Experimental Example 2: Efficacy test on tomato using oil based formulation (reddening grade); type: in vivo; parameters: key: an area in which the surface of tomato was colored in pink was 10% or less; an area in which the surface of tomato was completely colored in red was 10 to 40%; 2: an area in which the surface of tomato was completely colored in red was 40 to 70%; 3: an area in which the surface of tomato was completely colored in red was 70% or more and the bottom area remained green; 4: an area in which the surface of tomato was most colored in red and only a part of (0 to 10%) the bottom area remained green; 5: the surface of tomato did not entirely color in green; conditions: 1.0 mM oil-based formulation, individual tomatoes n=4
# Text: as §1
# As illustrated in Example 1, in situ, in accordance with the methods of Preparation Examples 15, 16, 17, 18 and 22, five agents (1.0 mmol) such as 1-(2-phenylethyl)cyclopropene, 1-(3-phenylpropyl)cyclopropene, 1-(4-phenylbutyl)cyclopropene, 1-(5-phenylpentyl)cyclopropene and 1-hexylcyclopropene were prepared, 5.0 ml of xylene and 5.0 ml of water were added to the reaction solution, vigorously stirred for 5 minutes and stood. When the mixture was separated into an organic layer (upper layer) and an aqueous layer (lower layer), only the organic layer was collected and the aqueous layer was discarded. […] of hexane was added to the organic layer and homogeneously mixed to prepare a 1.0 mM oil-based formulation.
# The tomatoes were screened in the same manner as in Experimental Example 1 and divided into 7 groups (n=4) including a non-treated group, a control group (solvent-treated group) and 5 agent groups. Tomatoes were treated with the previously prepared agent using a household sprayer such that the surface thereof was saturated. The tomatoes were stood at room temperature (25-30° C.) for 3 days and a reddening level thereof was evaluated based on grades of 0 to 5.
SMILES,"Stability (relative chemical stability, based on cyclopropenes having a chain length of 1) [1]",chemical stability (in words) [1],"reddening level (grade 0 to 5) (tomato [2]; 100 μM, Day 0, room temperature (25-30° C.))","reddening level (grade 0 to 5) (tomato [2]; 100 μM, Day 1, room temperature (25-30° C.))","reddening level (grade 0 to 5) (tomato [2]; 100 μM, Day 2, room temperature (25-30° C.))","reddening level (grade 0 to 5) (tomato [2]; 100 μM, Day 3, room temperature (25-30° C.))","reddening level (grade 0 to 5) (tomato [2]; 1.0 mM, Day 0, room temperature (25-30° C.))","reddening level (grade 0 to 5) (tomato [2]; 1.0 mM, Day 1, room temperature (25-30° C.))","reddening level (grade 0 to 5) (tomato [2]; 1.0 mM, Day 2, room temperature (25-30° C.))","reddening level (grade 0 to 5) (tomato [2]; 1.0 mM, Day 3, room temperature (25-30° C.))","Tomato results: reddening level (grade 0 to 5) (tomato [3]; Day 0, room temperature (25-30° C.))","Tomato results: reddening level (grade 0 to 5) (tomato [3]; Day 1, room temperature (25-30° C.))","Tomato results: reddening level (grade 0 to 5) (tomato [3]; Day 2, room temperature (25-30° C.))","Tomato results: reddening level (grade 0 to 5) (tomato [3]; Day 3, room temperature (25-30° C.))"
"COc1ccc(CC2=CC2)cc1 [A=—, Z=4-OCH, 1-(4-methoxybenzyl)cyclopropene]",~1,,,,,,,,,,,,,
C1=C(Cc2ccccc2)C1 [1-benzylcyclopropene],1,considerably unstable,,,,,,,,,,,,
"CCCCCCC1=CC1 [(Hexyl), 1-hexylcyclopropene, reference compound]",,,0 (an area in which the surface of tomato was colored in pink was 10% or less) (2×) and 1 (an area in which the surface of tomato was completely colored in red was 10 to 40%) and 2 (an area in which the surface of tomato was completely colored in red was 40 to 70%),1 (an area in which the surface of tomato was completely colored in red was 10 to 40%) (2×) and 3 (an area in which the surface of tomato was completely colored in red was 70% or more and the bottom area remained green) and 4,3 (an area in which the surface of tomato was completely colored in red was 70% or more and the bottom area remained green) (2×) and 4 and 5,4 and 5 (3×),0 (an area in which the surface of tomato was colored in pink was 10% or less) (2×) and 1 (an area in which the surface of tomato was completely colored in red was 10 to 40%) and 2 (an area in which the surface of tomato was completely colored in red was 40 to 70%),1 (an area in which the surface of tomato was completely colored in red was 10 to 40%) (2×) and 2 (an area in which the surface of tomato was completely colored in red was 40 to 70%) and 3 (an area in which the surface of tomato was completely colored in red was 70% or more and the bottom area remained green),2 (an area in which the surface of tomato was completely colored in red was 40 to 70%) (2×) and 3 (an area in which the surface of tomato was completely colored in red was 70% or more and the bottom area remained green) and 4,3 (an area in which the surface of tomato was completely colored in red was 70% or more and the bottom area remained green) (2×) and 5 (2×),0 (an area in which the surface of tomato was colored in pink was 10% or less) (2×) and 1 (an area in which the surface of tomato was completely colored in red was 10 to 40%) and 2 (an area in which the surface of tomato was completely colored in red was 40 to 70%),1 (an area in which the surface of tomato was completely colored in red was 10 to 40%) (2×) and 2 (an area in which the surface of tomato was completely colored in red was 40 to 70%) and 3 (an area in which the surface of tomato was completely colored in red was 70% or more and the bottom area remained green),3 (an area in which the surface of tomato was completely colored in red was 70% or more and the bottom area remained green) and 2 (an area in which the surface of tomato was completely colored in red was 40 to 70%) and 4 and 5,4 (2×) and 5 (2×)
